From patent publication US6465654B2, “Process for preparing 1-substituted, 2-substituted 1H-imidazo[4, 5-c]quinoline-4-amines” (3M Innovative Properties Company, priority 1991, dated 2002)

Legend:
interferon = assay: Interferon induction in mice; type: in vivo; settings: mouse serum
Method: One hour later blood samples are withdrawn from the first group. The samples are pooled then centrifuged. The serum is removed from the centrifuge tube, split into two portions, then placed in freezing vials and maintained at −70° C. until analysis. This procedure is repeated at 2 hours with the second group of mice and at 4 hours with the third group of mice. Samples are assayed as described above in connection with the analysis of interferon induction in human cells. The results are expressed in the table below as α/β reference units/mL based on the value obtained for a mouse MU-1-IF standard. Results are shown in the table below wherein results designated as “<” a certain number indicate that interferon was not detectable in amounts above the lower sensitivity level of the assay.

[1] = test system: vesicular stomatitis virus (VSV); assay: microbe, parasite or virus in culture; type: cell-based; settings: for VSV Yield Inhibition: log10 (control VSV yield/experimental VSV yield)
interferon-α = assay: Interferon-α induction in human cells, PBM; type: cell-based; settings: 24 hours
[2] = Vesicular stomatitis virus, read-out: VSV Yield Inhibition

Compound	Interferon induction in mice (interferon; oral 0.3 mg/kg, 1 hr) [Reference Units/mL]	Interferon induction in mice (interferon; oral 0.3 mg/kg, 2 hr) [Reference Units/mL]	Interferon induction in mice (interferon; oral 0.3 mg/kg, 4 hr) [Reference Units/mL]	Interferon induction in mice (interferon; oral 1 mg/kg, 1 hr) [Reference Units/mL]	Interferon induction in mice (interferon; oral 1 mg/kg, 2 hr) [Reference Units/mL]	Interferon induction in mice (interferon; oral 1 mg/kg, 4 hr) [Reference Units/mL]	Interferon induction in mice (interferon; oral 3 mg/kg, 1 hr) [Reference Units/mL]	Interferon induction in mice (interferon; oral 3 mg/kg, 2 hr) [Reference Units/mL]	Interferon induction in mice (interferon; oral 3 mg/kg, 4 hr) [Reference Units/mL]	Interferon induction in mice (interferon; oral 10 mg/kg, 1 hr) [Reference Units/mL]	Interferon induction in mice (interferon; oral 10 mg/kg, 2 hr) [Reference Units/mL]	Interferon induction in mice (interferon; oral 10 mg/kg, 4 hr) [Reference Units/mL]	log reduction at 1 µg/mL [1, 2]	Interferon-α induction (interferon-α; dose concentration 0.10 μg/mL)	Interferon-α induction (interferon-α; dose concentration 0.50 μg/mL)	Interferon-α induction (interferon-α; dose concentration 1.0 μg/mL)	Interferon-α induction (interferon-α; dose concentration 5.0 μg/mL)	also measured
Nc1nc2ccccc2c2c1nc(CO)n2Cc1ccccc1 [Example 27, 4-Amino-1-phenylmethyl-1H-imidazo[4,5-c]-quinoline-2-methanol]	<45	<45	<45	<45	<45	<45	<59	230	<45	130	690	<45	4	3300 α Reference Units/mL	550 α Reference Units/mL	370 α Reference Units/mL	490 α Reference Units/mL	log reduction at 0.1 µg/mL [1, 2]: 4; log reduction at 0.5 µg/mL [1, 2]: 3; Interferon-α induction (interferon-α; dose concentration 0.01 μg/mL): <4 α Reference Units/mL; Interferon-α induction (interferon-α; dose concentration 0.05 μg/mL): 24 α Reference Units/mL
CC(=O)NCc1nc2c(N)nc3ccccc3c2n1CC(C)C [Example 15, N-Acetyl-4-amino-1-(2-methylpropyl)-1H-imidazo-[4,5-c]quinoline-2-methanamine]	<120	<120	<120	<120	<120	<120	<120	270	<120	270	3100	270	6	<1.8 α Reference Units/mL	250 α Reference Units/mL	430 α Reference Units/mL	750 α Reference Units/mL	log reduction at 5 µg/mL [1, 2]: 5; log reduction at 10 µg/mL [1, 2]: 5
CCCCC(OC)c1nc2c(N)nc3ccccc3c2n1CC(C)C (centres unmarked) [Example 61, 2-(1-Methoxypentyl)-1-(2-methylproyl) -1H-imidazo[4,5-c]quinolin-4-amine]	<56	<56	<56	120	220	97	290	500	120	290	1100	160	–	64 α Reference Units/mL	1300 α Reference Units/mL	330 α Reference Units/mL	330 α Reference Units/mL	VSV Yield Inhibition ([1]; dose concentration 0.1 μg/mL): 5 log10; VSV Yield Inhibition ([1]; dose concentration 0.5 μg/mL): 7 log10; VSV Yield Inhibition ([1]; dose concentration 1.0 μg/mL): 5 log10
